The values below come from patent US10688113B2 (priority 2015, dated 2020).

Test [1] has as its system capsaicin-induced ocular pain. Conditions: rabbits, 1 to 28 mM administered 15 minutes before application of capsaicin; cited from earlier work.
The test system of test [2] is capsaicin-induced ocular pain (33 mM). Briefly: Capsaicin-induced ocular pain, acute treatment (single instillation 15 min before capsaicin). The test is classed as in vivo, New Zealand white rabbits. Conditions: rabbit, single instillation of 10 mM, 15 min before capsaicin 33 mM; compared with capsazepine 5 mM. As for the experimental part:
In order to study the pharmacological activity of the present invention in the case of ocular pain, the compounds of formula (I) were tested using the model of capsaicin-induced ocular pain. In this model, previously used in the literature (Gonzalez et al. (1993) Invest. Ophthalmol. Vis. Sci., 34(12), 3329-3335), in adult rabbits, the number of lid-squeezing movements, the degree of palpebral opening, miotic response and conjunctival vasodilation evoked by a bilateral instillation of 30 μL of capsaicin (33 mM) were measured at different times after administration of the drug. To that end, the responses to this test in eyes pre-treated with various calcium antagonists (diltiazem, verapamil or nifedipine) were compared with those that had received only vehicle.
The procedure and the timing were as follows:
Evaluation of corneal pain by observing conjunctival hyperaemia after pain induction (a single instillation of 1% capsaicin (33 mM) in the right eye) in albino rabbits. Pre-treatment with the compound to be tested, 15 min before capsaicin instillation.

The test system of test [3] is corneal mechanical sensitivity (allodynia). Briefly: Corneal mechanical sensitivity (allodynia), Von Frey filaments, trephine-injured cornea plus capsaicin. It is filed as in vivo, male C57BL/6 mice. Particulars: mice, 10 mM topical twice-daily for 5 days, capsaicin 100 μM, vs 1×PBS. As to the method:
During this test, de-epithelialization of the corneal epithelium of the left eye of the mouse is carried out using a 1.5 mm diameter trephine. This surgery is carried out under a surgical microscope. This procedure lasts at most 3 minutes per animal. The depth and surface area of corneal de-epithelialization are standardized and then evaluated by a slit-lamp examination. The advantage of this surgical tool is standardization of the injury. The 8-week-old male C57BL/6 mice thus treated receive a twice-daily treatment for 5 days of the compound of formula I or PBS before the application of capsaicin.
Additional pain is induced by capsaicin (100 μM). Corneal mechanical sensitivity (allodynia) was measured using Von Frey filaments, 5 days after treatment, on mice treated with compound 1 (10 mM), with compound 2 (10 mM) or, for the control group, with 1×PBS (n=5 animals per group). The results obtained are presented in FIG. 6 (y-axis: weight of the Von Frey filament in grams). The histogram on the left (black) represents the response of mice treated with PBS, the histogram in the middle represents the response of mice treated with compound 1 and the histogram on the right represents the response of mice treated with compound 2.

The subject of test [4] is mechanical allodynia induced by 0.2% BAC. Briefly: Keratitis induced by chronic instillation of 0.2% benzalkonium chloride (BAC), Von Frey filaments. It is filed as in vivo, male C57BL/6 mice. Particulars: mice, 0.2% BAC for 6 days then 10 mM twice-daily for 5 days; vs 1×PBS. An excerpt:
Chronic instillation of 0.2% benzalkonium chloride induces chronic inflammation of the cornea with generation of ocular pain (Launay et al. (2016) Neurobiol. Dis., 88 16-28). This model was used as a model of chemical keratitis.
Study of corneal sensitivity in mice treated twice-daily with compound 2 for 5 days first treated with 0.2% BAC for 6 days. The corneal mechanical sensitivity of male C57BL/6 mice, treated with 0.2% BAC for 6 days, then twice-daily with compound 2 for 5 days, was evaluated at various times using Von Frey filaments, compared with a control group receiving twice-daily 1×PBS (n=10 animals per group). The use of Von Frey filaments (applied to the centre of the cornea of a conscious animal) is perfectly feasible for measuring corneal mechanical allodynia in mice. In the context of dry eye, the technique produces mechanical allodynia in the patient: the simple fact of closing the eyelid induces a painful sensation. Lastly, this behavioural test is most like the one used in human clinical practice (Cochet-Bonnet) to measure corneal mechanical sensitivity.
The results obtained are presented in FIG. 7 (y-axis: weight of the Von Frey filament in grams). The histogram on the left represents the response of mice treated with PBS, while the histogram on the right represents the response of mice treated with compound 2.

Test [5] deals with LPS-induced bacterial keratitis. Briefly: LPS-induced inflammation model (corneal scratch, LPS 50 μg) followed by capsaicin instillation. Particulars: mice, LPS 50 μg days 1 and 4, 10 mM twice-daily for 5 days, capsaicin 100 μM on day 5, vs PBS. It is filed as in vivo. As to the method:
Bacterial lipopolysaccharide (LPS, endotoxin) is a potent stimulator of inflammatory responses and contributes to microbial keratitis and to corneal ulcers (Khatri et al. 2002 Invest. Ophthal. Vis. Sci., 43 2278-2284).
Effect of compound 2 in a model of LPS-induced inflammation (50 μg). A corneal epithelial injury (scratch) is made with a trephine (1.5 mm diameter) in mice, followed by topical treatment with LPS (50 μg, two administrations on days 1 and 4) then twice-daily chronic treatment for 5 days with 1×PBS (control group) or with compound 2 (10 mM) (n=6 animals per group), followed by capsaicin instillation (100 μM) on day 5. The results obtained are presented in FIG. 8 (y-axis: palpebral closure time in seconds). The histogram on the left represents the response of mice treated with PBS, while the histogram on the right represents the response of mice treated with compound 2.

For test [6], the system named is capsaicin-induced ocular pain (100 μM). The test can be described thus: Capsaicin test (100 μM) after chronic twice-daily treatment on trephine-injured cornea. The test is classed as in vivo, male C57BL/6 mice. Particulars: mice, trephine corneal injury, 10 mM topical twice-daily for 4 days, capsaicin 100 μM 15 min after last instillation; vs PBS. As to the method: The compounds of formula I of the present invention were also tested, in 8-week-old male C57BL/6 mice (JANVIER LABS), using a capsaicin test (100 μM) after twice-daily treatment for 5 days of the compound of formula I on cornea injured beforehand (with a 1.5 mm diameter trephine).
Analgesic effect of compound 2 in the model of capsaicin-induced ocular pain (100 μM). A corneal epithelial injury was made on the right cornea of male C57BL/6 mice (JANVIER LABS) using a 1.5 mm diameter trephine. Once the animals were operated on, a twice-daily topical treatment, for 4 days, is carried out with 1×PBS (5 animals per group) or with 10 mM compound 2 (5 animals per group). On day 4, 15 minutes after the last instillation, 100 μM capsaicin is instilled and the behavioural analysis is performed. The results obtained corresponding to the trephine injury alone before capsaicin are shown in FIG. 5 (y-axis: palpebral closure time in seconds).
During this test, de-epithelialization of the corneal epithelium of the left eye of the mouse is carried out using a 1.5 mm diameter trephine. This surgery is carried out under a surgical microscope. This procedure lasts at most 3 minutes per animal. The depth and surface area of corneal de-epithelialization are standardized and then evaluated by a slit-lamp examination. The advantage of this surgical tool is standardization of the injury. […]

The test system of test [7] is contractile responses to capsaicin. Conditions: morphine 5×100 μM; cited from earlier work.
The subject of test [8] is capsaicin-induced blinking. Particulars: cited from earlier work.

For the molecule `COc1ccc([C@@H]2Sc3ccccc3N(CCN(C)C)C(=O)[C@@H]2OC(C)=O)cc1` [diltiazem], in test [1], the “capsaicin-induced scratching movements, conjunctival hyperaemia, eye closure and elevated aqueous protein concentration” value is “significantly decreased”.
On to `C[C@H](NC(=O)[C@H](Cc1ccc(-c2ccccc2)cc1)CP(=O)([O-])[C@H](C)N)C(=O)[O-].[Na+].[Na+]` [compound 1], for which, in test [2], the “analgesic effect on conjunctival hyperaemia following pain induction by capsaicin” value was “superior to the reference product, capsazepine” and the “analgesic effect on palpebral opening following pain induction by capsaicin” value is “superior to the reference product, capsazepine”. Also, the “mechanical sensitivity measured with Von Frey filaments” value in test [3] was “significant decrease”.
In the case of `CC(OC(=O)N[C@@H](C)P(=O)([O-])C[C@@H](Cc1ccc(-c2ccccc2)cc1)C(=O)N[C@@H](C)C(=O)[O-])OC(=O)C(C)C.[Na+].[Na+]` (stereo partly shown) [compound 2], in test [4], the “mechanical allodynia induced by 0.2% BAC (Von Frey filaments)” value is reported as “significantly reduced (higher sensitivity threshold)”. In test [2], the “analgesic effect on conjunctival hyperaemia following pain induction by capsaicin” value was “superior to the reference product, capsazepine” and the “analgesic effect on palpebral opening following pain induction by capsaicin” value is on record as “superior to the reference product, capsazepine”. In addition, the “analgesic effect (cumulative palpebral closure time) in LPS-induced keratitis” value in test [5] is recorded as “very significant analgesic effect (shorter cumulative palpebral closure time)”. In test [6], the “analgesic effect (cumulative palpebral closure time) in the capsaicin test” value was “very significant analgesic effect (shorter cumulative palpebral closure time)”. In test [3], the “mechanical sensitivity measured with Von Frey filaments” value is given as “significant decrease”.
`CN1CC[C@]23c4c5ccc(O)c4O[C@H]2[C@@H](O)C=C[C@H]3[C@H]1C5` [morphine]: the “contractile responses to capsaicin” value in test [7] is reported as “partially inhibited”. In addition, in test [8] (applied to healthy, non-inflamed rat cornea), the “blinking, healthy non-inflamed rat cornea” value is “no effect on blinking”. The capsaicin-induced blinking entry in test [8] (rats, topical application of a drop, 5 μM) is “attenuates capsaicin-induced blinking in a concentration-dependent manner”.
